In US8822444B2, “Hepatitis C virus inhibitors” (Bristol-Myers Squibb Company, priority 2009, dated 2014):
Like-named read-outs stand apart in the source and are kept apart here.

Test system: HCV 1b genotype
Assay: HCV Replicon assay
Format: cell-based
Details: HCV 1b genotype replicon
Procedure: An HCV Replicon assay was utilized in the present disclosure, and was prepared, conducted and validated as described in commonly owned PCT/US2006/022197 and in O'Boyle et. al. Antimicrob Agents Chemother. 2005 April; 49(4):1346-53. Assay methods incorporating luciferase reporters have also been used as described (Apath.com).
HCV-neo replicon cells and replicon cells containing mutations in the NS5A region were used to test the currently described family of compounds. The compounds were determined to have more than 10-fold less inhibitory activity on cells containing mutations than wild-type cells. Thus, the compounds of the present disclosure can be effective in inhibiting the function of the HCV NS5A protein and are understood to be as effective in combinations as previously described in application PCT/US2006/022197 and commonly owned WO/04014852. Further, the compounds of the present disclosure can be effective against the HCV 1b genotype. It should also be understood that the compounds of the present disclosure can inhibit multiple genotypes of HCV. […] In one embodiment, compounds of the present disclosure are inhibitory versus 1a, 1b, 2a, 2b, 3a, 4a, and 5a genotypes.

[1] = Hepatitis C virus, read-out: 1b EC50 Range
[2] = Hepatitis C virus, read-out: 1b EC50 (in nM or range)

SMILES | EC50 [1] [nM] | EC50 [2] [nM] | EC50 (read-out: 1b EC50 Range) [nM]
COC(=O)N[C@H](C(=O)N1CCC[C@H]1c1nc(C2=CCC(c3ccc(-c4c[nH]c([C@@H]5CCCN5C(=O)[C@@H](NC(=O)OC)[C@@H](C)OC)n4)cc3)CC2)c[nH]1)[C@@H](C)OC (stereo partly drawn) [QC-12, methyl ((1S,2R)-2-methoxy-1-(((2S)-2-(4-(4-(4-(2-((2S)-1-(N-(methoxycarbonyl)-O-methyl-L-threonyl)-2-pyrrolidinyl)-1H-imidazol-4-yl)-3-cyclohexen-1-yl)phenyl)-1H-imidazol-2-yl)-1-pyrrolidinyl)carbonyl)propyl)carbamate] | 4.57 to 99 |  | 
COC(=O)N[C@H](C(=O)N1CCC[C@H]1c1nc(-c2ccc(C34CCC(c5c[nH]c([C@@H]6CCCN6C(=O)[C@@H](NC(=O)OC)C(C)C)n5)(CC3)CC4)cc2)c[nH]1)C(C)C [Example M-1, methyl ((1S)-1-(((2S)-2-(4-(4-(4-(2-((2S)-1-((2S)-2-((methoxycarbonyl)amino)-3-methylbutanoyl)-2-pyrrolidinyl)-1H-imidazol-4-yl)phenyl)bicyclo[2.2.2]oct-1-yl)-1H-imidazol-2-yl)-1-pyrrolidinyl)carbonyl)-2-methylpropyl)carbamate] | 2 to 4.57 | 0.009 | 
COC(=O)N[C@@H](C(=O)N1CCC[C@H]1c1nc(-c2ccc(C34CCC(c5c[nH]c([C@@H]6CCCN6C(=O)[C@H](NC(=O)OC)c6ccccc6)n5)(CC3)CC4)cc2)c[nH]1)c1ccccc1 [Example M-3, methyl ((1R)-2-((2S)-2-(4-(4-(4-(2-((2S)-1-((2R)-2-((methoxycarbonyl)amino)-2-phenylacetyl)-2-pyrrolidinyl)-1H-imidazol-4-yl)bicyclo[2.2.2]oct-1-yl)phenyl)-1H-imidazol-2-yl)-1-pyrrolidinyl)-2-oxo-1-phenylethyl)carbamate] | 2 to 4.57 |  | 
COC(=O)N[C@@H](C(=O)N1[C@@H]2C[C@@H]2C[C@H]1c1ncc(-c2ccc(C34CCC(c5cnc([C@@H]6C[C@H]7C[C@H]7N6C(=O)[C@H](NC(=O)OC)c6ccccc6)[nH]5)(CC3)CC4)cc2)[nH]1)c1ccccc1 [Example M-7, methyl ((1R)-2-((1R,3S,5R)-3-(5-(4-(4-(2-((1R,3S,5R)-2-((2R)-2-((methoxycarbonyl)amino)-2-phenylacetyl)-2-azabicyclo[3.1.0]hex-3-yl)-1H-imidazol-5-yl)bicyclo[2.2.2]oct-1-yl)phenyl)-1H-imidazol-2-yl)-2-azabicyclo[3.1.0]hex-2-yl)-2-oxo-1-phenylethyl)carbamate] | 2 to 4.57 |  | 
COC(=O)N[C@@H](C)C(=O)N1CCC[C@H]1c1nc(C2=CCC(C3CC=C(c4c[nH]c([C@@H]5CCCN5C(=O)[C@H](C)NC(=O)OC)n4)CC3)CC2)c[nH]1 (stereo partly drawn) [QC-2, methyl ((1S)-2-((2S)-2-(4-(4′-(2-((2S)-1-(N-(methoxycarbonyl)-L-alanyl)-2-pyrrolidinyl)-1H-imidazol-4-yl)-1,1′-bi(3-cyclohexen-1-yl)-4-yl)-1H-imidazol-2-yl)-1-pyrrolidinyl)-1-methyl-2-oxoethyl)carbamate] |  |  | 4.57 to 99
COC[C@H](NC(=O)OC)C(=O)N1CCC[C@H]1c1nc(-c2ccc(N3CCC(c4c[nH]c([C@@H]5CCCN5C(=O)[C@H](COC)NC(=O)OC)n4)CC3)cc2)c[nH]1 [QC-14, methyl ((1S)-2-((2S)-2-(4-(4-(4-(2-((2S)-1-(N-(methoxycarbonyl)-O-methyl-L-seryl)-2-pyrrolidinyl)-1H-imidazol-4-yl)-1-piperidinyl)phenyl)-1H-imidazol-2-yl)-1-pyrrolidinyl)-1-(methoxymethyl)-2-oxoethyl)carbamate] | 100 to 999 |  | 
COC(=O)N[C@@H](C)C(=O)N1CCC[C@H]1c1nc(-c2ccc(C34CCC(c5c[nH]c([C@@H]6CCCN6C(=O)[C@H](C)NC(=O)OC)n5)(CC3)CC4)cc2)c[nH]1 [Example M-2, methyl ((1S)-2-((2S)-2-(4-(4-(4-(2-((2S)-1-(N-(methoxycarbonyl)-L-alanyl)-2-pyrrolidinyl)-1H-imidazol-4-yl)bicyclo[2.2.2]oct-1-yl)phenyl)-1H-imidazol-2-yl)-1-pyrrolidinyl)-1-methyl-2-oxoethyl)carbamate] | 4.57 to 99 |  | 
COC[C@H](NC(=O)OC)C(=O)N1CCC[C@H]1c1nc(C2CCC(C3CCC(c4c[nH]c([C@@H]5CCCN5C(=O)[C@H](COC)NC(=O)OC)n4)CC3)CC2)c[nH]1 (stereo partly drawn) [QC-7, methyl ((1S)-2-((2S)-2-(4-(4′-(2-((2S)-1-(N-(methoxycarbonyl)-O-methyl-L-seryl)-2-pyrrolidinyl)-1H-imidazol-4-yl)-1,1′-bi(cyclohexyl)-4-yl)-1H-imidazol-2-yl)-1-pyrrolidinyl)-1-(methoxymethyl)-2-oxoethyl)carbamate] | 1000 to 10000 | 17.1 | 
COC(=O)N[C@H](C(=O)N1CCC[C@H]1c1nc(C2=CCC(c3ccc(-c4c[nH]c([C@@H]5CCCN5C(=O)[C@@H](NC(=O)OC)C(C)C)n4)cc3)CC2)c[nH]1)C(C)C (mixture of isomers) [QC-9, methyl ((1S)-1-(((2S)-2-(4-(4-(4-(2-((2S)-1-((2S)-2-((methoxycarbonyl)amino)-3-methylbutanoyl)-2-pyrrolidinyl)-1H-imidazol-4-yl)phenyl)-1-cyclohexen-1-yl)-1H-imidazol-2-yl)-1-pyrrolidinyl)carbonyl)-2-methylpropyl)carbamate] | 2 to 4.57 | 0.011 | 
COC(=O)N[C@H](C(=O)N1CCC[C@H]1c1nc(-c2ccc(N3CCC(c4c[nH]c([C@@H]5CCCN5C(=O)[C@@H](NC(=O)OC)C(C)(C)C)n4)CC3)cc2)c[nH]1)C(C)(C)C [QC-15, methyl ((1S)-1-(((2S)-2-(4-(1-(4-(2-((2S)-1-((2S)-2-((methoxycarbonyl)amino)-3,3-dimethylbutanoyl)-2-pyrrolidinyl)-1H-imidazol-4-yl)phenyl)-4-piperidinyl)-1H-imidazol-2-yl)-1-pyrrolidinyl)carbonyl)-2,2-dimethylpropyl)carbamate] | 4.57 to 99 |  | 
CC[C@H](NC(=O)OC)C(=O)N1[C@@H]2C[C@@H]2C[C@H]1c1ncc(-c2ccc(C34CCC(c5cnc([C@@H]6C[C@H]7C[C@H]7N6C(=O)[C@H](CC)NC(=O)OC)[nH]5)(CC3)CC4)cc2)[nH]1 [Example M-6, methyl ((1S)-1-(((1R,3S,5R)-3-(5-(4-(4-(2-((1R,3S,5R)-2-((2S)-2-((methoxycarbonyl)amino)butanoyl)-2-azabicyclo[3.1.0]hex-3-yl)-1H-imidazol-5-yl)bicyclo[2.2.2]oct-1-yl)phenyl)-1H-imidazol-2-yl)-2-azabicyclo[3.1.0]hex-2-yl)carbonyl)propyl)carbamate] | 2 to 4.57 |  | 
COC[C@H](NC(=O)OC)C(=O)N1CCC[C@H]1c1nc(C2=CCC(C3CC=C(c4c[nH]c([C@@H]5CCCN5C(=O)[C@H](COC)NC(=O)OC)n4)CC3)CC2)c[nH]1 (stereo partly drawn) [QC-4, methyl ((1S)-2-((2S)-2-(4-(4′-(2-((2S)-1-(N-(methoxycarbonyl)-O-methyl-L-seryl)-2-pyrrolidinyl)-1H-imidazol-4-yl)-1,1′-bi(3-cyclohexen-1-yl)-4-yl)-1H-imidazol-2-yl)-1-pyrrolidinyl)-1-(methoxymethyl)-2-oxoethyl)carbamate] |  |  | 4.57 to 99
COC(=O)N[C@H](C(=O)N1[C@@H]2C[C@@H]2C[C@H]1c1ncc(-c2ccc(C34CCC(c5cnc([C@@H]6C[C@H]7C[C@H]7N6C(=O)[C@@H](NC(=O)OC)C(C)C)[nH]5)(CC3)CC4)cc2)[nH]1)C(C)C [Example M-5, methyl ((1S)-1-(((1R,3S,5R)-3-(5-(4-(4-(2-((1R,3S,5R)-2-((2S)-2-((methoxycarbonyl)amino)-3-methylbutanoyl)-2-azabicyclo[3.1.0]hex-3-yl)-1H-imidazol-5-yl)bicyclo[2.2.2]oct-1-yl)phenyl)-1H-imidazol-2-yl)-2-azabicyclo[3.1.0]hex-2-yl)carbonyl)-2-methylpropyl)carbamate] | 2 to 4.57 |  | 
COC(=O)N[C@@H](C)C(=O)N1CCC[C@H]1c1nc(C2=CCC(c3ccc(-c4c[nH]c([C@@H]5CCCN5C(=O)[C@H](C)NC(=O)OC)n4)cc3)CC2)c[nH]1 (stereo partly drawn) [QC-10, methyl ((1S)-2-((2S)-2-(4-(4-(4-(2-((2S)-1-(N-(methoxycarbonyl)-1-alanyl)-2-pyrrolidinyl)-1H-imidazol-4-yl)-3-cyclohexen-1-yl)phenyl)-1H-imidazol-2-yl)-1-pyrrolidinyl)-1-methyl-2-oxoethyl)carbamate] |  |  | 4.57 to 99
COC(=O)N[C@@H](C)C(=O)N1CCC[C@H]1c1nc(C2CCC(C3CCC(c4c[nH]c([C@@H]5CCCN5C(=O)[C@H](C)NC(=O)OC)n4)CC3)CC2)c[nH]1 (stereo partly drawn) [QC-6, methyl ((1S)-2-((2S)-2-(4-(4′-(2-((2S)-1-(N-(methoxycarbonyl)-L-alanyl)-2-pyrrolidinyl)-1H-imidazol-4-yl)-1,1′-bi(cyclohexyl)-4-yl)-1H-imidazol-2-yl)-1-pyrrolidinyl)-1-methyl-2-oxoethyl)carbamate] | 100 to 999 |  | 
COC[C@H](NC(=O)OC)C(=O)N1CCC[C@H]1c1nc(C2=CCC(c3ccc(-c4c[nH]c([C@@H]5CCCN5C(=O)[C@H](COC)NC(=O)OC)n4)cc3)CC2)c[nH]1 (stereo partly drawn) [QC-11, methyl ((1S)-2-((2S)-2-(4-(4-(4-(2-((2S)-1-(N-(methoxycarbonyl)-O-methyl-L-seryl)-2-pyrrolidinyl)-1H-imidazol-4-yl)-3-cyclohexen-1-yl)phenyl)-1H-imidazol-2-yl)-1-pyrrolidinyl)-1-(methoxymethyl)-2-oxoethyl)carbamate] | 4.57 to 99 |  | 
